Data: ChEMBL document CHEMBL1201862, “PubChem BioAssay data set” (2004)
Activity calls are given as the source filed them. For most assays here, no stated cut-off is given here; in the data, actives have a measured IC50 and inactives only a lower limit.

What was measured:
Assay type in all cases: functional
[1] = target: T1, Apoptotic protease-activating factor 1 (Homo sapiens, UniProt O14727)
T1 sequence (O14727 whole entry): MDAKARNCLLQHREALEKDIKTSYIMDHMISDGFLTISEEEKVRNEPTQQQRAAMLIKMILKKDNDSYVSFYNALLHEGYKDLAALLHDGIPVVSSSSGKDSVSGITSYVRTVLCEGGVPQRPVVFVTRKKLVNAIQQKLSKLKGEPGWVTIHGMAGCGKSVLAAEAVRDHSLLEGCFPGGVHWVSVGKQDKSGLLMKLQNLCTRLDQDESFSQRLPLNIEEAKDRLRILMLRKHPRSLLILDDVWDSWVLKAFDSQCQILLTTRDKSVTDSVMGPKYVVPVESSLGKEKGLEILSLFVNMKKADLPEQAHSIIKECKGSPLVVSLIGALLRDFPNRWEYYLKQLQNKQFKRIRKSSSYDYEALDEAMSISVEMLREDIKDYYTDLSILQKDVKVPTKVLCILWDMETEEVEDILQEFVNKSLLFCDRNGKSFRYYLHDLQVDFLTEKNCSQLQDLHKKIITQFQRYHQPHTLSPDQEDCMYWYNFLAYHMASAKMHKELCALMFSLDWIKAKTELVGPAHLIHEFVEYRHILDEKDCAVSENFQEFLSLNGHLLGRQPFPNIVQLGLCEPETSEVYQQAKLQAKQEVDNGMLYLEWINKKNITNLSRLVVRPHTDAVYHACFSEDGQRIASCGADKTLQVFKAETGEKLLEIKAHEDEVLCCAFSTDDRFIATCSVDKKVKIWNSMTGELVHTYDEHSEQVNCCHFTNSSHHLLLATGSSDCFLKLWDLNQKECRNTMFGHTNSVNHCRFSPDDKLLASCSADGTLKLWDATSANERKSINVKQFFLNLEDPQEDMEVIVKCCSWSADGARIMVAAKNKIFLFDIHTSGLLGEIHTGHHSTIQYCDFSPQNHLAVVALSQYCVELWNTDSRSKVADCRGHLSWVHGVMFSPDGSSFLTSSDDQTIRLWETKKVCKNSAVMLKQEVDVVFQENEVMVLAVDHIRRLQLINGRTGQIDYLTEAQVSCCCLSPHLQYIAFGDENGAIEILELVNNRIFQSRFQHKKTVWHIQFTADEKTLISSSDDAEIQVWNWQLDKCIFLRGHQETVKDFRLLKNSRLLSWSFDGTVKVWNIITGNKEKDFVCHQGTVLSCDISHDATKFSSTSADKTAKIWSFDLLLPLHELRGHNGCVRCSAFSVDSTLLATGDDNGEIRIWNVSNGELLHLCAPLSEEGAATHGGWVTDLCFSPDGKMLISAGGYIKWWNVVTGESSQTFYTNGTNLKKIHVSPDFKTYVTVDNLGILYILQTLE

Caspase-3 = target: T2, Caspase-3 (Homo sapiens, UniProt P42574);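 further: Dose-response selectivity test against caspase-3 for candidate inhibitors of sentrin-specific proteases (SENPs)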
T2 sequence (P42574 whole entry): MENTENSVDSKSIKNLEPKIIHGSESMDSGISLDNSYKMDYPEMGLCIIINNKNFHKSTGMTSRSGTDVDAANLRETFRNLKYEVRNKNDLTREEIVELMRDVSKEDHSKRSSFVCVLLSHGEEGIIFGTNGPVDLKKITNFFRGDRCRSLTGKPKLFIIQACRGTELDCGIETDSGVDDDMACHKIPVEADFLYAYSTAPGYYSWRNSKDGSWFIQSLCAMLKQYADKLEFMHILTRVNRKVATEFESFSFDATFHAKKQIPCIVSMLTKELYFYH

[2] = target: T3, Sentrin-specific protease 7 (Homo sapiens, UniProt Q9BQF6);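 further: Luminescence-based dose-response confirmation of ultra-high-throughput screening hits, measuring inhibition of SENP7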
T3 sequence (Q9BQF6 whole entry): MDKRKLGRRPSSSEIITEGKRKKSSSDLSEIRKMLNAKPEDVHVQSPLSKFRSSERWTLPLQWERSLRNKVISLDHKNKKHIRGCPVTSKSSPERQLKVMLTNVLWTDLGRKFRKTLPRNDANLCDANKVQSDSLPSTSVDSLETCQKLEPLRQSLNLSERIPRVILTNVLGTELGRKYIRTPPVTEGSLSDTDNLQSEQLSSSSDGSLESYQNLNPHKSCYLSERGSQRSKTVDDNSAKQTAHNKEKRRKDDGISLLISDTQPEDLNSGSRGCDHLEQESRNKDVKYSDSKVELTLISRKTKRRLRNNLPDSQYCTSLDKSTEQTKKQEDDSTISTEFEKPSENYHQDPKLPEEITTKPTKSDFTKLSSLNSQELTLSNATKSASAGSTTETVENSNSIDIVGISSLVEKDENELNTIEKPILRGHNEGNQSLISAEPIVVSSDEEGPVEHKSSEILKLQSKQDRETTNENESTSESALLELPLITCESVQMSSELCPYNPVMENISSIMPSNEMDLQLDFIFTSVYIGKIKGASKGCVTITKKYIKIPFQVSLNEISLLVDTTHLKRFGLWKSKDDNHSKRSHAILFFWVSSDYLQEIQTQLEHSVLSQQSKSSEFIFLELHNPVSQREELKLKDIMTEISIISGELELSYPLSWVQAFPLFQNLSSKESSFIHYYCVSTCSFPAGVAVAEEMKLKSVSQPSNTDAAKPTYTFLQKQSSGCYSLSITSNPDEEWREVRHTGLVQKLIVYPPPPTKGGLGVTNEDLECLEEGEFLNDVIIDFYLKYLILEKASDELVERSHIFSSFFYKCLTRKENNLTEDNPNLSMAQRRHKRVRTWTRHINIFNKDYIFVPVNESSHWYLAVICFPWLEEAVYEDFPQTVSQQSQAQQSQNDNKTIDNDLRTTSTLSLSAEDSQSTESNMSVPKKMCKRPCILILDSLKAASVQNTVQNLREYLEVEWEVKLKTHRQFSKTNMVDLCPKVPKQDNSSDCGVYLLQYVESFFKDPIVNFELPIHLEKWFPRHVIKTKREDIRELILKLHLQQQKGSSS

[3] = THP-1 cell cytotoxicity, dose response, cytotoxicity control for Vif-APOBEC3G degradation inhibitor project, THP-1 cells (AID 1117359); conditions: Human immunodeficiency virus 1, THP-1

COC(=O)C(O)(c1c(C)[nH]n(-c2ccccc2)c1=O)C(F)(F)F (stereo not drawn)
IC50 [1]: 14.6 µM (active)

COc1ccc(S(=O)(=O)Nc2cc(SCC(=O)O)c(O)c3ccccc23)cc1
IC50 (Caspase-3): 11.2 µM (active) | IC50 [1]: 31.8 µM (active) | IC50 [2]: 19.9 µM (active) | CC50 [3]: 5.84 µM (active)

CC1CC(=O)c2c(cc3c(-c4c(O)cc(O)c5c(O)c6c(cc45)OC(C)CC6=O)c(O)cc(O)c3c2O)O1 (stereo not drawn) [CEPHALOCHROMIN]
CC50 [3]: 3.08 µM (active)

O=C(/C=C/c1ccco1)Nc1ccc(Oc2ccccc2)cc1
IC50 (Caspase-3): 20.5 µM (active) | IC50 [2]: 3.82 µM (active)
